Data set [1] deals with T1, USP7 (Homo sapiens, UniProt Q93009). Kind of data set: Ub-PLA2 isopeptidase reporter assay, USP7. Conditions: for USP7 inhibitory activity (SAR): Fig 1C/1D. The class given is biochemical. A general note: Reporter assays use an easily measured gene product as a stand-in for the process of interest.
For data set [2], the system named is other DUBs or other families of cysteine proteases. Kind of data set: Ub-PLA2 / protease panel, selectivity. The class given is biochemical. The note with it: read-out: EC50, other DUBs or other families of cysteine proteases; Fig 1D.
The target in data set [3] is T1, USP7. Kind of data set: HA-UbVME active site probe competition, HEK293T cells. The class given is cell-based. The note with it: lysates from treated HEK293T cells; concentrations as low as.
The subject of data set [4] is other DUBs. Kind of data set: HA-UbVME probe labeling of other DUBs, HEK293T cells. The note with it: even at 40 μM. The class given is cell-based.
The target of data set [5] is USP5 (Homo sapiens, UniProt P45974). Kind of data set: DUB inhibition in cells. The class given is cell-based. Conditions: Fig S1A.
Chain of USP5 (P45974 whole entry): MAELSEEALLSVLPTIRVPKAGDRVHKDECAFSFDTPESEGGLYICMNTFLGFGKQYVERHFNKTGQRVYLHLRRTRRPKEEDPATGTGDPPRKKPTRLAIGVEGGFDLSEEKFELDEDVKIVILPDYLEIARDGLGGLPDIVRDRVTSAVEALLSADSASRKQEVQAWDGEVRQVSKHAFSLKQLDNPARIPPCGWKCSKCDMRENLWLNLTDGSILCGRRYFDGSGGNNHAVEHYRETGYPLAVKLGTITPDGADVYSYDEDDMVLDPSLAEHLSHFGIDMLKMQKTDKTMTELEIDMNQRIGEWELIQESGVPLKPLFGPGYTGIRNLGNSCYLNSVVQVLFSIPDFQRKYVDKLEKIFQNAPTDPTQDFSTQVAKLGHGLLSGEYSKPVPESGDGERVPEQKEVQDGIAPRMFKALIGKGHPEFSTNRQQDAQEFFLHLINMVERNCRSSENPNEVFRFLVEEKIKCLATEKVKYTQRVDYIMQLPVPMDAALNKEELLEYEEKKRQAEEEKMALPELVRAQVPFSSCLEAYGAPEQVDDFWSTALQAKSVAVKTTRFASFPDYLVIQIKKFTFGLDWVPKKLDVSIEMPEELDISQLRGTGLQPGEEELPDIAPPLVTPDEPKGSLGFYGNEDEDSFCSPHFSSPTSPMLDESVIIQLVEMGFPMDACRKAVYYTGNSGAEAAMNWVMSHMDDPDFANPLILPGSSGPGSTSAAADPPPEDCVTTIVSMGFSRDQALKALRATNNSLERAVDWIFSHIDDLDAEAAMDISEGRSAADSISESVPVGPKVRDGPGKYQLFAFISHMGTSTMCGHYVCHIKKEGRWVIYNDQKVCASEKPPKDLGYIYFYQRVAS
Data set [6] addresses UCHL1 (Homo sapiens, UniProt P09936). Kind of data set: DUB inhibition in cells. The class given is cell-based. The note with it: Fig S1A.
In data set [7] the target is UCHL3 (Homo sapiens, UniProt P15374). Kind of data set: DUB inhibition in cells. The class given is cell-based. Conditions: Fig S1A.
Chain of UCHL3 (P15374 whole entry): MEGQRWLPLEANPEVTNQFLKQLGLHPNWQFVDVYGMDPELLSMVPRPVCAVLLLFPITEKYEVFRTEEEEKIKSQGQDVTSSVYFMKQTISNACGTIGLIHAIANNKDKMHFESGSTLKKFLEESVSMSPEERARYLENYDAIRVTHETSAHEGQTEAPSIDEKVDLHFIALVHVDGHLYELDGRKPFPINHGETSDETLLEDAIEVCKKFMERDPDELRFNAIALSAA
The target in data set [8] is T1, USP7. Nature of the data set: Ubiquitin-linked K48 chain cleavage assay, USP7. The class given is biochemical. Conditions: Ub7 and K48-linked chains.
Data set [9] deals with HCT116 (WT) cells. Nature of the data set: MTT viability, HCT116. The note with it: 24, 48, 72 hr. The class given is cell-based, human.
Data set [10] deals with HCT116 USP7^−/− cells. Kind of data set: MTT viability, HCT116 USP7^−/−. The class given is cell-based, human. The note with it: HCT116 USP7^−/− versus WT.
For data set [11], the system named is U2OS cells. Nature of the data set: IC50 in U2OS cells. The class given is cell-based.
Data set [12] relates to HDM2. Nature of the data set: HDM2 ubiquitylation. The class given is cell-based. Conditions: U2OS.
For data set [13], the target named is T1, USP7. Nature of the data set: Cellular USP7 activity in MM.1S cells, Ub-EKL assay after immunoprecipitation. The class given is cell-based. The note with it: 3 hr, concentration-dependent.
The subject of data set [14] is proteasome. Kind of data set: Proteasome activity in MM.1S cells. The class given is cell-based, human. Conditions: for Chymotrypsin-like (CT-L) proteasome activity: MM.1S cells, 3 hr.
Data set [15] deals with purified patient MM cells. Nature of the data set: Purified patient MM cell viability. The note with it: 8 MM patients, 48 hr. The class given is cell-based, human.
Data set [16] relates to ANBL-6.WT cells. Kind of data set: Cell viability, ANBL-6.WT. The class given is cell-based.
Data set [17] relates to ANBL-6.BR cells. Nature of the data set: Cell viability, ANBL-6.BR. The class given is cell-based.
Data set [18] has as its system MM.1S cells cultured with BMSCs. Nature of the data set: MM.1S proliferation with BMSCs, 3H-TdR uptake. Conditions: 72 hr. The class given is cell-based, human.
Data set [19] has as its system MM cells. Kind of data set: Apoptosis. Conditions: Fig S3E. The class given is cell-based, human.
In data set [20] the test system is HDM2, HDMX, p53, p21. Kind of data set: Immunoblot of HDM2/HDMX/p53/p21 in MM.1S and RPMI-8226 cells. The class given is cell-based, human. The note with it: 6.25 and 12.5 μM, 24 hr. (In general: Immunoblotting shows a protein as a band on a membrane.)
For data set [21], the system named is MM.1S cells. Nature of the data set: Viability of scr- or HDM2-siRNA transfected MM.1S cells. The class given is cell-based, human. The note with it: 24 hr.
The test system of data set [22] is p53^−/− MEFs. Kind of data set: Viability, p53^−/− MEFs. The class given is cell-based, mouse. The note with it: 48 hr.
Data set [23] relates to p53^−/−/MDM2^−/− MEFs. Nature of the data set: Viability, p53^−/−/MDM2^−/− MEFs. The class given is cell-based, mouse. Conditions: 48 hr.
Data set [24] has as its system MM.1S cells. Kind of data set: Viability of scr- or p53-siRNA transfected MM.1S cells. The class given is cell-based, human. Conditions: 48 hr.
The subject of data set [25] is HCT116 p53 (WT) and HCT116 p53^−/− cells. Nature of the data set: Viability, HCT116 p53. The class given is cell-based, human. Conditions: 72 hr.
In data set [26] the test system is ARP-1 MM cells. Kind of data set: Viability, p53-null ARP-1 MM cells. Conditions: p53-null ARP-1, 48 hr. The class given is cell-based, human.
Data set [27] deals with MM.1S cells. Nature of the data set: Viability of scr- or p21-siRNA transfected MM.1S cells. The class given is cell-based, human. The note with it: 48 hr.
The test system of data set [28] is INA-6 MM tumors. Kind of data set: SCID-hu model, INA-6 MM tumors, serum shIL-6R. The class given is in vivo, mice. The note with it: 10 mg/kg.
Data set [29] deals with HCT116 p21^−/− cells. Conditions: 48 hr, versus HCT116 (WT).
For data set [30] the following is noted: mouse, in vivo.
In data set [31] the test system is CCRF-CEM leukemic tumors. Nature of the data set: CCRF-CEM leukemic xenograft. The note with it: 10 mg/kg twice weekly for 3 weeks.
Data set [32] relates to ARP-1 MM tumors. Nature of the data set: Human p53-null ARP-1 MM xenograft. On the technique in general: Xenograft models place foreign cells or tissue in a host animal.
Data set [33] relates to MM.1S MM tumors. Nature of the data set: Human MM.1S plasmacytoma xenograft.
Data set [34] in a line: Tolerability in tumor-bearing mice. Conditions: twice-weekly schedule.
In data set [35] the test system is MM cell lines. Kind of data set: MM cell line viability. The class given is cell-based, human.
The test system of data set [36] is MM cells from bortezomib-resistant patients. Nature of the data set: Viability of MM cells from bortezomib-resistant patients. Conditions: 12.5 nM, 48 hr, in 3 of 6 samples. The class given is cell-based, human.
The mark [37] stands for this setting: 10 mg/kg IV twice weekly for 3 weeks.

A word on the EC50: it is the midpoint of the concentration-response curve. Broadly, the IC50 is the point on the concentration scale where inhibition reaches its midpoint. Lower therefore signals higher potency.

T1 sequence (Q93009 whole entry): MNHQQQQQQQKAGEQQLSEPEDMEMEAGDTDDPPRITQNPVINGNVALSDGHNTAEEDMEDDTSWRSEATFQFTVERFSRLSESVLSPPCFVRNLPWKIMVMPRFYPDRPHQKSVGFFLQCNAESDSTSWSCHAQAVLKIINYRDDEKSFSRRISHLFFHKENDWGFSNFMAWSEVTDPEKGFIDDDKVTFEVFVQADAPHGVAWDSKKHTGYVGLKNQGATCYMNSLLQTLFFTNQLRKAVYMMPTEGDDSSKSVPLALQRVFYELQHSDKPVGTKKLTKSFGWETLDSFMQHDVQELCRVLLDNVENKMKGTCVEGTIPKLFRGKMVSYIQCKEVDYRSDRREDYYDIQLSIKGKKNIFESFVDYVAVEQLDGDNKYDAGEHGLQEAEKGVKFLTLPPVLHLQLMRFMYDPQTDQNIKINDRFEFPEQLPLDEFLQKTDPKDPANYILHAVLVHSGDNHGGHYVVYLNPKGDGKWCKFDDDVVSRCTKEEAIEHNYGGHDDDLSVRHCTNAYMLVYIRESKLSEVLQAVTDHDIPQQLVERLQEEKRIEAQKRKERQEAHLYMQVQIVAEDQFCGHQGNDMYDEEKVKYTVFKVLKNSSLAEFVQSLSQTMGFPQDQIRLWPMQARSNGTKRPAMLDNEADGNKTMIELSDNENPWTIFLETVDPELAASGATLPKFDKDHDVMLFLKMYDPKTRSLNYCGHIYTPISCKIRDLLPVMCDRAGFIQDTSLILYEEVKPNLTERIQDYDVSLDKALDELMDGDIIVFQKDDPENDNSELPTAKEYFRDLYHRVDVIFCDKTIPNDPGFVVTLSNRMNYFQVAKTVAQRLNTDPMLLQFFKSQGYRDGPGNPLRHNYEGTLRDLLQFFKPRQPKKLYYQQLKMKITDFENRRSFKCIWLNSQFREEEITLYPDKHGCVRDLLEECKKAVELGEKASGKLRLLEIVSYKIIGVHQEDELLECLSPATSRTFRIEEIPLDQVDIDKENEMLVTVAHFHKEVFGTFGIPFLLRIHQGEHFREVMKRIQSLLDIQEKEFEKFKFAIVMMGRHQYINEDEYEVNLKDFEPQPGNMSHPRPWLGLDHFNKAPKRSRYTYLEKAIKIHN
Chain of UCHL1 (P09936 whole entry): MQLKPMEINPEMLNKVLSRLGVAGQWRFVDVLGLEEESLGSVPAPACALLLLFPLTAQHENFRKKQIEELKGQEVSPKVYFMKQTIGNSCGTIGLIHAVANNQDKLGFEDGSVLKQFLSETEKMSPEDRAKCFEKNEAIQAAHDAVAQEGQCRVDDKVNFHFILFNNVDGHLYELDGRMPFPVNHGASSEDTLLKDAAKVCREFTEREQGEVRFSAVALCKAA

Regarding `CC(=O)c1cc([N+](=O)[O-])c(Sc2cccc(Cl)c2Cl)s1` [P5091], the EC50 is 4.2 ± 0.9 µM in data set [1] (read-out: EC50, deubiquitylating activity against USP7, Ub-PLA2 reporter assay) and greater than 100 µM in data set [2]. Also, the “Concentration inhibiting Ub-USP7 conjugate formation (HA-UbVME labeling)” value in [3] was in the range of 5 to 10 µM. Further, the “Labeling of other DUBs with Ub-VME” value in data set [4] was “No gross difference”. Besides, the “Inhibition of USP5” value in [5] is listed as “did not inhibit”. For the same molecule, the “Inhibition of UCHL1” value in data set [6] is on record as “did not inhibit”. In addition, in [7], the “Inhibition of UCHL3” value is recorded as “did not inhibit”. Also, in data set [8], the “USP7-mediated cleavage of poly ubiquitin chains” value is listed as “inhibited in a dose-dependent manner”. Moreover, the Cell viability result in data set [9] is “decreased the viability”; in [26], “decreases the viability”. Also, the Cytotoxic activity entry in data set [10] is “marked reduction in P5091 cytotoxic activity”. Also, the IC50 in data set [11] came to 15 µM; in data set [16] (ANBL-6.WT, 48 hr), 6.83 µM; in data set [17] (ANBL-6.BR, 48 hr), 9.85 µM; in [22], 7.72 µM; in [23], 20.9 µM. Also, the HDM2 degradation entry in data set [12] (15 μM, versus CHX alone) is “accelerates the degradation of HDM2”. The HDM2 ubiquitination entry in data set [12] (HA-Ub transfected, 30 μM, 4 hr) is “markedly increases HDM2 ubiquitination”. The “Inhibition of USP7 activity” value in [13] is given as greater than 50%. In data set [14] (25–50 μM), the “Caspase-like (C-L) proteasome activity” value is “no effect”. Further, the “Trypsin-like (T-L) proteasome activity” value in [14] (25–50 μM) is “no effect”. Besides, the “Chymotrypsin-like (CT-L) proteasome activity” value in data set [14] is listed as “no significant inhibition”. The “Viability of patient MM cells” value in [15] is “dose-dependent decrease in the viability”. Besides, in [17] (p < 0.001), the “IC50 ratio (ANBL-6.BR/ANBL-6.WT)” value was “significantly less than bortezomib”. In [18], the “BMSCs-induced proliferation of MM.1S” value was “inhibited BMSCs-induced proliferation”. In addition, the “Apoptosis (Annexin V/PI)” value in [19] was “accumulation of cells in early (Ann V^+/PI^−) and late stage (Ann V^+/PI^+) apoptosis”. Also, the “HDM2, HDMX, p53 and p21 protein levels” value in [20] was “decreased HDM2 and HDMX, as well as upregulated p53 and p21 levels”. The “Percentage of viable cells” value in data set [21] (HDM2-siRNA, P5091 6.25 μM) amounted to 73.3%; in data set [21] (HDM2-siRNA, P5091 12.5 μM) it was 19.2%; in data set [21] (scr-siRNA, P5091 6.25 μM), 47.2%; in data set [21] (scr-siRNA, P5091 12.5 μM), 8.6%. The “Effect of p53 depletion by siRNA on drug-induced decrease in viability” value in [24] is on record as “does not affect”. Besides, the “Cytotoxicity in HCT116 p53 (WT) versus HCT116 p53^−/−” value in data set [25] is “equipotent cytotoxicity in both cell types”. Moreover, the “Effect of p21 silencing with siRNA on cytotoxicity” value in data set [27] is “attenuates P5091-induced cytotoxicity”. The “Tumor growth (serum shIL-6R)” value in data set [28] was “inhibited tumor growth”. In data set [29], the “Cytotoxicity in HCT116 p21^−/− cells” value is on record as “significantly blocked”. In data set [30], the Blood chemistry profile result is “normal levels of bilirubin, hemoglobin, and creatinine”. Besides, in data set [30], the Weight loss entry is “no significant weight loss”. The Survival entry in [31], in data set [32] (setting [37]) and in data set [33] (setting [37]) was “prolongs survival” throughout. In addition, the Tumor growth entry in data set [31] is on record as “inhibits leukemic tumor growth”; in data set [32] (setting [37]), “inhibits MM tumor growth”; in [33] (setting [37]), “inhibits MM tumor growth”. Moreover, the “USP7 activity in tumors” value in [32] (compared with control mice, at 3 hr) is on record as “marked inhibition of USP7 activity”. Moreover, the “Proliferation in harvested tumors” value in data set [33] (BrdU and Ki67 staining) was “decreases proliferation”. For the same molecule, the Apoptotic tumor cells result in data set [33] (cleaved caspase-3, TUNEL, versus vehicle) is “increases the number of cleaved-caspase-3-, and TUNEL-positive apoptotic tumor cells”. Besides, the “Angiogenesis markers in tumors” value in [33] (immunostaining VEGFR2, PECAM1) was “decreases the number of VEGFR2- and PECAM1-positive cells”. In [33] (relative to control mice), the “USP7 activity in harvested tumors” value is reported as “inhibited USP7 activity”. The molecule also gave an MTD dose in [34] of 20 mg/kg.
Turning to `CC(=O)c1cc([N+](=O)[O-])c(Sc2ccccc2)s1` [P22074], the “USP7 inhibitory activity (SAR)” value is “inactive” in data set [1] and “not active” in [1] (listed as 1). Further, in data set [35], the “Effect on viability of MM cell lines” value is “no significant effect”.
With `CC(C)C[C@H](NC(=O)[C@H](Cc1ccccc1)NC(=O)c1cnccn1)B(O)O` [bortezomib, reference compound], the “Chymotrypsin-like (CT-L) proteasome activity” value in [14] is recorded as “blocks”. Moreover, in [36], the Decrease in viability was 10%–50%. Besides, the values for the IC50 in data set [16] (48 h) and in data set [17] (48 h) were 0.00232 µM and 0.0121 µM, respectively.

The values above are taken from article PMC3478134 (Cancer cell, 2012).
